# Test results taken from patent US20030157516A1, “G protein coupled receptor” (priority 2000, published 2003).
# Assays:
# [1] = target: T1, adenine binding rat receptor (Rattus norvegicus, UniProt Q7TN49); assay: [35S]GTPγS binding on CHO membranes permanently transfected; format: biochemical; details: for % stimulation: above basal
# T1 construct: expressed in transfected cells; host or cells: CHO cells, transient, lipofectamine PLUS
# T1 sequence (Q7TN49 1-304): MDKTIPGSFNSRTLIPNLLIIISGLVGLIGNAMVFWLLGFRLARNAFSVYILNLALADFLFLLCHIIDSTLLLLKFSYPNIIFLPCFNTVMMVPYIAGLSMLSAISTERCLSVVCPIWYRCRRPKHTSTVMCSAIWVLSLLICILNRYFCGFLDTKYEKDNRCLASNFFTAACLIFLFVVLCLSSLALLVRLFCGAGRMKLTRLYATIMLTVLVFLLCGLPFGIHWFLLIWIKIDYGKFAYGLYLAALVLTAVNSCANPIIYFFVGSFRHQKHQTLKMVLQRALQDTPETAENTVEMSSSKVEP
# Description: The lipofectamine PLUS method was also used for permanent transfection of CHO cells with slight modifications. One day after the transfection, the medium was replaced with selection medium which was replaced every 2 to 3 days. The cells were grown till colonies appeared (between day 8 and 10) and split to a 175 cm^2 culture flask for further culture and experiments. Monoclonal cell lines were prepared by limited dilution seeding in 96 well plates.
# a) Methods—Determination of [^35S ]GTPγS binding to the G-proteins was carried out according to a modified procedure of Lazareno (Methods Mol. Biol., 83:107-116, 1997). These experiments were performed for a first functional evaluation of the receptor on the level of a membrane preparation.
# The assay mixture contained 10 and 35 μg of membrane protein for the transfected and wild type CHO cells, respectively.
# For testing agonistic activity, 175 μl of diluted membranes was pre-incubated in the buffer described above together with 25 μl of buffer and 25 μl of varying concentrations of the compound in a total volume of 225 μl. After a 20 minute pre-incubation period at 30° C., 25 μl of [^35S]GTPγS was added to a final concentration of 0.25 nM and the assay mixtures were further incubated for 20 minutes at 30° C. Bound and free [^35S]GTPγS were separated by rapid filtration over an UniFilter™-96, GF/B™ under reduced pressure using Filtermate 196 filtration (Packard Company (Netherlands). The amount of bound radioactivity on the filter unit was determined after drying of the filters and scintillant addition (Microscint-O; Packard Company) by liquid scintillation counting.
# Basal [^35S]GTPγS binding was measured in absence of compounds. Stimulation by agonist was calculated as the percentage increase above basal levels. The sigmoid agonist concentration-response curves were analyzed by non-linear regression using the GraphPad Prism program. The different concentration points were run in duplicates and the reported data were retrieved from independent experiments.
# The first functional characterization of the monoclonal cell lines was performed in [^35S]GTPγS binding experiments. The maximum stimulation of [^35S] GTPγS binding by adenine for each of the 4 selected clones was much higher ([…]) than the that found in the transient transfections confirming the expected better coupling in permanent cell lines (see table 5).
# [2] = target: T1, adenine binding rat receptor; assay: cAMP measurements on CHO cells transiently transfected (forskolin stimulated); format: cell-based; details: inhibition of forskolin stimulated cAMP
# Description: a) Methods—For transiently transfected CHO cells, cAMP measurements were performed using the direct RIA kit from NEN (Belgium).
# The cells were collected from 50 mm petri dishes by adding 1 ml 0.04% EDTA and re-suspending them in PBS (without Ca^2+ and Mg^2+). The cells were then centrifuged for 5 minutes at 1,500 RPM, the supernatant was removed and the pellet was re-suspended in stimulation buffer (provided by the supplier, NEN). The cells were counted and 50 μl was added to each well of a 96-well flashplate at a density of 10^6 cells/well. A standard curve of cAMP was prepared in stimulation buffer, covering a range from 10 to 1,000 nM, and 50 μl was added to the flashplate.
# The compounds were diluted in PBS with forskolin (at 50 μM), and 50 μl of the ligand, 2 times the final concentration, was added to the cells and incubated for 20 minutes at 37° C. After the 20 minutes incubation, 100 μl of the [^125I]cAMP tracer (2 μCi) was added to each well, resulting in a final volume of 200 μl/well. The plate was left at room temperature, until being counted in the Topcount™ microplate scintillation counter (Packard, Netherlands). The sigmoid concentration response curves (duplicate points) were analyzed using the GraphPad Prism program (GraphPad Software, Calif., USA).
# a) Methods: Two days before the experiment the cells were seeded out in a 96 well plate at a density required for approximately 90% confluence at the day of the experiment. After removal of the growth medium, the cells were washed twice with a controlled salt solution (CSS) containing 25 mM Tris-HCl, pH 7.4, 120 mM NaCl, 5.4 mM KCl, 0.8 mM MgCl2, 1.8 mM CaCl2, 15 mM glucose and 15 mg/l phenol red, with an addition of a phosphodiesterase inhibitor IBMX (3-isobutyl-1-methylxanthine) in a concentration of 1 mM and […]. Basal cAMP levels were determined in CSS containing these additives and maximally stimulated cAMP levels were determined in the presence of 50 μM forskolin. For testing agonistic activity, the compounds were incubated with the cells for 20 minutes at 37° C. The reaction was stopped by addition of ice cold HClO4 (1N) and stored at −20° C. After thawing the mixtures were neutralized with an equivalent amount of phosphate buffered KOH, left at 4° C. during 30 minutes to allow the salts to precipitate and centrifuged at 2,000 RPM for 5 minutes at 4° C.
# For the quantitative determination of the cAMP levels, a 96-well Flashplate radioimmunoassay kit from NEN was used, according to the protocol of the supplier. The sigmoid concentration response curves (duplicate points) were analyzed using the GraphPad Prism program.
# [3] = direct assay, 0.5% hiFCS, read-out: pEC50 (converted)
# [4] = direct assay, 2% hiFCS, read-out: pEC50 (converted)
# [5] = indirect assay, 0.5% hiFCS, read-out: pEC50 (converted)
smiles,measurement,setting,value
"Nc1ncnc2nc[nH]c12 [Adenine, adenine]",EC50,"[1]; 4 selected clones, read-out: mean EC50",62 nM
same,EC50,"[1]; Clone 26 (MP1), read-out: pEC50 (converted)",64.6 nM
same,EC50,"[1]; Clone 28 (MP9), read-out: pEC50 (converted)",49 nM
same,EC50,"[1]; Clone 29 (MP9), read-out: pEC50 (converted)",79.4 nM
same,EC50,"[1]; Clone 30 (MP9), read-out: pEC50 (converted)",57.5 nM
same,% stimulation,[1]; Clone 26 (MP1),632%
same,% stimulation,[1]; Clone 28 (MP9),657%
same,% stimulation,[1]; Clone 29 (MP9),527%
same,% stimulation,[1]; Clone 30 (MP9),534%
same,EC50,[2]; [3],20.9 nM
same,EC50,[2]; [4],7.08 nM
same,EC50,[2]; [5],3.31 nM
same,EC50,"[2]; indirect assay, 2% hiFCS, read-out: pEC50 (converted)",110 nM
same,EC50,"[2]; transiently transfected cells, read-out: EC50",~15 nM
Cn1cnc2ncnc-2c1N [1-Methyladenine],EC50,[2]; [3],4900 nM
same,EC50,[2]; [4],6310 nM
same,EC50,[2]; [5],7940 nM
same,pEC50,"[2]; indirect assay, 2% hiFCS",no fit
